Data published in ChEMBL document CHEMBL1201862, “PubChem BioAssay data set” (2004).
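Step 1: Grow cells in 96-well plates. Step 2: Expose to compound for 48 hours at 5 concentrations. Step 3: Interpolate endpoints linearly; if unreached, use highest concentration. GI50 marks 50% less growth.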 Active and inactive are the calls of the source. Rule as the data show it: active = GI50 up to about 1.1 µM and inactive = higher.

Assays:
Experiment in all cases: NCI-60 cell line screen, 48 h
COLO 205 = tested on: COLO 205
EKVX = tested on: EKVX
HCT-116 = tested on: HCT-116
HCT-15 = tested on: HCT-15
IGROV-1 = tested on: IGROV-1
MCF7 = tested on: MCF7
MDA-MB-231 = tested on: MDA-MB-231
NCI-H460 = tested on: NCI-H460
OVCAR-3 = tested on: OVCAR-3
OVCAR-4 = tested on: OVCAR-4
OVCAR-8 = tested on: OVCAR-8
SF-539 = tested on: SF-539
SK-MEL-28 = tested on: SK-MEL-28
SK-MEL-5 = tested on: SK-MEL-5
SK-OV-3 = tested on: SK-OV-3
SNB-19 = tested on: SNB-19
UACC-62 = tested on: UACC-62
UO-31 = tested on: UO-31
HL-60 = tested on: HL-60
K562 = tested on: K562

| SMILES | GI50 (COLO 205) | GI50 (EKVX) | GI50 (HCT-116) | GI50 (HCT-15) [µM] | GI50 (IGROV-1) | GI50 (MCF7) | GI50 (MDA-MB-231) | GI50 (NCI-H460) | GI50 (OVCAR-3) | GI50 (OVCAR-4) | GI50 (OVCAR-8) | GI50 (SF-539) | GI50 (SK-MEL-28) | GI50 (SK-MEL-5) | GI50 (SK-OV-3) | GI50 (SNB-19) | GI50 (UACC-62) | GI50 (UO-31) | GI50 (HL-60) | GI50 (K562) |
| --- | --- | --- | --- | --- | --- | --- | --- | --- | --- | --- | --- | --- | --- | --- | --- | --- | --- | --- | --- | --- |
| Cn1cc(C=C(C#N)C#N)c(=O)n(C)c1=O | > 100 µM (inactive) | > 100 µM (inactive) | > 100 µM (inactive) | > 100 | > 100 µM (inactive) | > 100 µM (inactive) | > 100 µM (inactive) | > 100 µM (inactive) | > 100 µM (inactive) | > 100 µM (inactive) | > 100 µM (inactive) | > 100 µM (inactive) | > 100 µM (inactive) | > 100 µM (inactive) | > 100 µM (inactive) | > 100 µM (inactive) | > 100 µM (inactive) | > 100 µM (inactive) |  |  |
| O=[N+]([O-])c1cccc(C2ON2C2CCCCC2)c1 (stereo not drawn) | 17.6 µM (inactive) | 44 µM (inactive) | 13.5 µM (inactive) | 16.9 | 20 µM (inactive) |  |  | 17.5 µM (inactive) | 18.5 µM (inactive) | 17.8 µM (inactive) | 17.6 µM (inactive) | 22.5 µM (inactive) | 36.9 µM (inactive) | 17.7 µM (inactive) | 35.2 µM (inactive) | 29.1 µM (inactive) | 20.4 µM (inactive) | 22.6 µM (inactive) | 17.5 µM (inactive) | 14.4 µM (inactive) |
| CCOC(=O)/C(C#N)=C\C=C1/C=CN=C2NCCN21 | > 100 µM (inactive) | > 100 µM (inactive) | > 100 µM (inactive) | > 100 | > 100 µM (inactive) |  |  | > 100 µM (inactive) | > 100 µM (inactive) | > 100 µM (inactive) | > 100 µM (inactive) | > 100 µM (inactive) | > 100 µM (inactive) | > 100 µM (inactive) | > 100 µM (inactive) | > 100 µM (inactive) | > 100 µM (inactive) | > 100 µM (inactive) | > 100 µM (inactive) | > 100 µM (inactive) |
| O=C(N/N=C/c1ccccc1)c1c(-c2cccnc2)cnc2ccccc12 | > 100 µM (inactive) | > 100 µM (inactive) | 52.5 µM (inactive) | 48 | 58.7 µM (inactive) | 48.2 µM (inactive) |  | 61.1 µM (inactive) | > 100 µM (inactive) | > 100 µM (inactive) | > 100 µM (inactive) | 70.3 µM (inactive) | > 100 µM (inactive) | 43.7 µM (inactive) | 84.5 µM (inactive) | > 100 µM (inactive) | 79.8 µM (inactive) | > 100 µM (inactive) | 42.9 µM (inactive) | 44.9 µM (inactive) |
| Cc1ccc2c(n1)NC(=O)C(Cc1ccccc1)(N=[N+]=[N-])C2=O (stereo not drawn) | > 100 µM (inactive) |  | > 100 µM (inactive) | > 100 | > 100 µM (inactive) | > 100 µM (inactive) | > 100 µM (inactive) | > 100 µM (inactive) | > 100 µM (inactive) | > 100 µM (inactive) | > 100 µM (inactive) | > 100 µM (inactive) | > 100 µM (inactive) |  | > 100 µM (inactive) | > 100 µM (inactive) | > 100 µM (inactive) | > 100 µM (inactive) |  | > 100 µM (inactive) |
| CCSC12CC3c4cccc5c4C(CN5C(=O)c4ccccc4)CC3(O1)N(C)C2=O (stereo not drawn) | 26.1 µM (inactive) | 24.2 µM (inactive) | 30.1 µM (inactive) | 29.4 | 31.3 µM (inactive) |  | 27.9 µM (inactive) | 37.8 µM (inactive) | 40.8 µM (inactive) | 36.9 µM (inactive) | 31.5 µM (inactive) | 26.9 µM (inactive) | 48.4 µM (inactive) | 14.7 µM (inactive) | > 100 µM (inactive) | 87.3 µM (inactive) | 22.5 µM (inactive) | 47.3 µM (inactive) | 22.7 µM (inactive) | 33.3 µM (inactive) |
| O=C1C=CC(=O)c2cc(Sc3ccccc3)c(=O)c(Sc3ccccc3)cc21 | 73.3 µM (inactive) | > 100 µM (inactive) | 32.6 µM (inactive) | 50.6 | 68.5 µM (inactive) |  |  | > 100 µM (inactive) | 50.9 µM (inactive) | 53.3 µM (inactive) | 31.7 µM (inactive) | > 100 µM (inactive) | 95.1 µM (inactive) | > 100 µM (inactive) | 43.2 µM (inactive) | > 100 µM (inactive) | 24.8 µM (inactive) | 37.8 µM (inactive) | 10.6 µM (inactive) | 28.1 µM (inactive) |
| NC(=O)c1cc2ccccc2c(/N=N/c2ccccc2)c1O | > 100 µM (inactive) | 39.4 µM (inactive) | 14.1 µM (inactive) | > 100 | > 100 µM (inactive) |  | 35.6 µM (inactive) |  | 88.1 µM (inactive) | 19.4 µM (inactive) | 29.9 µM (inactive) |  | > 100 µM (inactive) | > 100 µM (inactive) | 76.6 µM (inactive) | > 100 µM (inactive) | > 100 µM (inactive) | > 100 µM (inactive) |  | 71.9 µM (inactive) |
